Reference: patent US20220000964A1, “Compositions and Methods for Regulating Homeostasis of Chondrocytes, Extracellular Matrix, Articular Cartilage, and Phenotype of Arthritis” (Unigen, Inc., priority 2020, published 2022)
Where “and” joins values, the source holds several entries; their conditions need not be identical. Equal entries are not always repeated. Marks after values point to notes of the source that are not given here.

Experiments:
Type in all cases: in vivo, rat
CIA rats [1] = experiment: CIA rats, ankle diameter; parameters: Ankle diameter (Mean): unit not given here; details: for % Inhibition Ankle diameter (AUC): vs CIA + vehicle
CIA rats [2] = experiment: CIA rats, paw thickness; parameters: Paw thickness (Mean): unit not given beside the values; details: for % Inhibition Paw thickness (AUC): vs CIA + vehicle
CIA rats [3] = experiment: CIA rats, compression-induced pain (Randall-Salitto); details: AP CIA study
Protocol: Clinical findings such as arthritis severity index, paw thickness, ankle diameter (using Digital Absolute, Model #PK-0505CPX, Mitutoyo Corporation, Kawasaki, Japan), and pain sensitivity (using Randall Salitto, IITC Life Science Inc., Woodland Hills, Calif., USA) were monitored during the course of study. Urine was collected from overnight fasted rats using metabolic cages after three weeks of treatment post-model induction. At Necropsy, serum from the cardiac and synovial lavage (100 μL of saline was injected into the articular cavity and aspirated back to the syringe) for biomarkers and ankle joint for histopathology were collected from each animal.
Response to pressure as a measure of pain sensitivity was assessed using the Randall-Salitto probe attached to an electronic monitor on priming day, boost day, and days 12, 14, 16, 19, and 21. Both the left and right hind legs were monitored on those days and their average was used for data analysis. Changes from the vehicle-treated CIA rats have been reported as pain tolerance on those days.
Response to pressure as a measure of pain sensitivity was measured using the Randall-Salitto probe attached to an electronic monitor on priming day, boost day, and days 12, 14, 16, 18 and 20. Both the left and right hind legs were monitored on those days and their averages were used for data analysis. Changes from the vehicle-treated CIA rats have been reported as pain tolerance on those days. […] This reduction in pain sensitivity was statistically significant at all time points as of day-12 for both groups when compared to vehicle-treated CIA rats (Table 43).

[4] = AMK study, MTX 75 μg/kg, AMK 200 mg/kg
[5] = AP CIA study, Methotrexate 0.5 mg/kg, AP 200 mg/kg oral
[6] = AP study, MTX 0.5 mg/kg, AP 200 mg/kg
[7] = Boost, MTX 75 μg/kg, AMK 200 mg/kg
[8] = Day 9, MTX 75 μg/kg, AMK 200 mg/kg
[9] = Day 10, MTX 75 μg/kg, AMK 200 mg/kg
[10] = Day 11, MTX 75 μg/kg, AMK 200 mg/kg
[11] = Day 12, MTX 75 μg/kg, AMK 200 mg/kg
[12] = Day 13, MTX 75 μg/kg, AMK 200 mg/kg
[13] = Day 14, MTX 75 μg/kg, AMK 200 mg/kg
[14] = Day 15, MTX 75 μg/kg, AMK 200 mg/kg
[15] = Day 16, MTX 75 μg/kg, AMK 200 mg/kg
[16] = Priming, AP study, MTX 0.5 mg/kg, AP 200 mg/kg
[17] = Priming, MTX 75 μg/kg, AMK 200 mg/kg

CN(Cc1cnc2nc(N)nc(N)c2n1)c1ccc(C(=O)N[C@@H](CCC(=O)O)C(=O)O)cc1 [Methotrexate]
percent reduction in ankle diameter (AUC) vs vehicle-treated CIA (CIA rats [1]; AMK CIA study, MTX 75 μg/kg, AMK 200 mg/kg oral, AUC days 9-21): 65.94% and 65.9%
AUC(d9-d21) (Mean ± SD) Ankle diameter (CIA rats [1]; [4]): 39.11 ± 0.21
percent reduction in ankle diameter (AUC) vs vehicle-treated CIA (CIA rats [1]; [5]): 93.6%
AUC(d9-d21) (Mean ± SD) Ankle diameter (CIA rats [1]; [6]): 30.94 ± 0.11
Ankle diameter (Mean) (CIA rats [1]; [7]): 6.08
Ankle diameter (Mean) (CIA rats [1]; [8]): 6.12
Ankle diameter (Mean) (CIA rats [1]; [9]): 6.17
Ankle diameter (Mean) (CIA rats [1]; [10]): 6.33
Ankle diameter (Mean) (CIA rats [1]; [11]): 6.50*
Ankle diameter (Mean) (CIA rats [1]; [12]): 6.67*
Ankle diameter (Mean) (CIA rats [1]; [13]): 6.85*
Ankle diameter (Mean) (CIA rats [1]; [14]): 7.06*
Ankle diameter (Mean) (CIA rats [1]; [15]): 7.28*
Ankle diameter (Mean) (CIA rats [1]; [16]): 0.10
Ankle diameter (Mean) (CIA rats [1]; [17]): 6.03
Ankle diameter (Mean) (CIA rats [1]; day 17, MTX 75 μg/kg, AMK 200 mg/kg): 7.32*
Ankle diameter (Mean) (CIA rats [1]; day 19, MTX 75 μg/kg, AMK 200 mg/kg): 6.03†
Ankle diameter (Mean) (CIA rats [1]; day 21, MTX 75 μg/kg, AMK 200 mg/kg): 6.08†
% Inhibition Ankle diameter (AUC) (CIA rats [1]; MTX 75 μg/kg, AMK 200 mg/kg): 65.94%
% Inhibition Ankle diameter (AUC) (CIA rats [1]; MTX 0.5 mg/kg, AP 200 mg/kg): 93.59%
percent reduction in paw thickness / paw edema (AUC) vs vehicle-treated CIA (CIA rats [2]; AMK CIA study, MTX 75 μg/kg, AMK 200 mg/kg oral, area under the swelling curve): 71.7%
AUC(d9-d21) (Mean ± SD) Paw thickness (CIA rats [2]; [4]): 20.64 ± 0.21
percent reduction in paw thickness / paw edema (AUC) vs vehicle-treated CIA (CIA rats [2]; [5]): 93.8%
AUC(d9-d21) (Mean ± SD) Paw thickness (CIA rats [2]; [6]): 15.55 ± 0.21
Paw thickness (CIA rats [2]; Boost, AP study, MTX 0.5 mg/kg, AP 200 mg/kg): 2.95 ± 0.06
Paw thickness (Mean) (CIA rats [2]; [7]): 3.07
Paw thickness (Mean) (CIA rats [2]; [8]): 3.12
Paw thickness (Mean) (CIA rats [2]; [9]): 3.17
Paw thickness (Mean) (CIA rats [2]; [10]): 3.32
Paw thickness (CIA rats [2]; Day 12, AP study, MTX 0.5 mg/kg, AP 200 mg/kg): 2.99 ± 0.06
Paw thickness (Mean) (CIA rats [2]; [11]): 3.47*
Paw thickness (Mean) (CIA rats [2]; [12]): 3.53*
Paw thickness (CIA rats [2]; Day 14, AP study, MTX 0.5 mg/kg, AP 200 mg/kg): 3.01 ± 0.03
Paw thickness (Mean) (CIA rats [2]; [13]): 3.60*
Paw thickness (Mean) (CIA rats [2]; [14]): 3.98^†
Paw thickness (CIA rats [2]; Day 16, AP study, MTX 0.5 mg/kg, AP 200 mg/kg): 3.21 ± 0.05
Paw thickness (Mean) (CIA rats [2]; [15]): 4.32^†
Paw thickness (Mean) (CIA rats [2]; Day 17, MTX 75 μg/kg, AMK 200 mg/kg): 3.96^¥
Paw thickness (CIA rats [2]; Day 18, AP study, MTX 0.5 mg/kg, AP 200 mg/kg): 3.25 ± 0.05
Paw thickness (Mean) (CIA rats [2]; Day 19, MTX 75 μg/kg, AMK 200 mg/kg): 3.06^¥
Paw thickness (CIA rats [2]; Day 20, AP study, MTX 0.5 mg/kg, AP 200 mg/kg): 3.23 ± 0.06
Paw thickness (Mean) (CIA rats [2]; Day 21, MTX 75 μg/kg, AMK 200 mg/kg): 3.07^€
Paw thickness (CIA rats [2]; [16]): 2.93 ± 0.07
Paw thickness (Mean) (CIA rats [2]; [17]): 3.06
% Inhibition Paw thickness (AUC) (CIA rats [2]; MTX 75 μg/kg, AMK 200 mg/kg): 71.71%
% Inhibition Paw thickness (AUC) (CIA rats [2]; MTX 0.5 mg/kg, AP 200 mg/kg): 93.81%
pain tolerance improvement vs vehicle-treated CIA (CIA rats [3]; Methotrexate 0.5 mg/kg, day 20): 69.4%
range of reduction in pain sensitivity vs vehicle treated CIA rats (CIA rats [3]; days 12-20): 8.39-69.4%
